Data published in patent US20220296627A1, “Cytidine Derivatives and Methods of Forming Cytidine Derivatives” (Aenorasis Commercial Company of Pharmaceutical and Medical …, priority 2019, published 2022).

Experiments:
Assay type in all cases: cell-based
[1] = test system: SW1573/WT wild type non-small lung human cell line; assay: Cell growth assay (SRB) in SW1573/WT; settings: for IC50: Homo sapiens, SW1573, SW 1573/WT; for Ratio of IC50 in the presence of, compared to in the absence of, dipyridamole / Ratio of IC50 in the presence of dipyridamole / IC50 in the absence of dipyridamole: SW 1573/WT; for Ratio of IC50 in the presence of, compared to in the absence of, dipyridamole: acetylated 4-N-acyl derivatives (Table 7); for Ratio of IC50 in the presence of dipyridamole / IC50 in the absence of dipyridamole: 4-N-acyl and 4-N-phosphoryl derivatives (Table 5)
Procedure: (§1) Biological activities of the Gemcitabine derivative (which may be referred to as analogues) described above were evaluated with two assays: • 1. Cell growth assay using the SRB assay in cell lines A549/WT, SW1573/WT, PANC-01 and BXPC-3. • 2. MTT assay in human bladder cancer cell line T-24
(§2) The following cell lines were tested: • A549/WT —wild type human lung adenocarcinoma cell line (1) • SW1573/WT —wild type non-small lung human cell line (2), • PANC-01—human pancreatic cancer cell line (3) • BXPC-3 -epithelial human pancreatic adenocarcinoma cells (4).
(§3) Dipyridamole inhibits adenosine uptake by erythrocytes platelets and endothelial cells in vitro and in vivo. Thus, the present inventors recruited dipyridamole as an inhibitor of the nucleoside transporters of the tumour cells to observe the behaviour of the presently described Gemcitabine derivatives.
(§4) From the IC50 of each compound in the presence of dipyridamole, by dividing it with the IC50 of each compound in the absence of dipyridamole, the present inventors calculated a ratio that compared the efficacy of the analogous presence of dipyridamole.
(§5) Ratio=IC50 in the presence of dipyridamole/IC50 in the absence of dipyridamole • FIG. 10. Ratio of IC50 of 4-N-acyl and 4-N-phosphoryl derivatives in the presence of, compared to in the absence of, dipyridamole, in four cell lines

[2] = test system: PANC-01 human pancreatic cancer cell line; assay: Cell growth assay (SRB) in PANC-01; settings: for IC50: Homo sapiens, Pancreatic cancer cell; for Ratio of IC50 in the presence of, compared to in the absence of, dipyridamole: acetylated 4-N-acyl derivatives (Table 7); for Ratio of IC50 in the presence of dipyridamole / IC50 in the absence of dipyridamole: 4-N-acyl and 4-N-phosphoryl derivatives (Table 5)
Procedure: as §1, §2, §3, §4, §5

[3] = test system: BXPC-3 epithelial human pancreatic adenocarcinoma cells; assay: Cell growth assay (SRB) in BXPC-3; settings: for Ratio of IC50 in the presence of, compared to in the absence of, dipyridamole / Ratio of IC50 in the presence of dipyridamole / IC50 in the absence of dipyridamole: BXPC-3; for Ratio of IC50 in the presence of, compared to in the absence of, dipyridamole: acetylated 4-N-acyl derivatives (Table 7); for IC50: Homo sapiens, BXPC-3, BXPC-3; for Ratio of IC50 in the presence of dipyridamole / IC50 in the absence of dipyridamole: 4-N-acyl and 4-N-phosphoryl derivatives (Table 5)
Procedure: as §1, §2, §3, §4, §5

[4] = test system: A549/WT wild type human lung adenocarcinoma cell line; assay: Cell growth assay (SRB) in A549/WT; settings: for Ratio of IC50 in the presence of, compared to in the absence of, dipyridamole / Ratio of IC50 in the presence of dipyridamole / IC50 in the absence of dipyridamole: A549/WT; for Ratio of IC50 in the presence of, compared to in the absence of, dipyridamole: acetylated 4-N-acyl derivatives (Table 7); for IC50: Homo sapiens, A549, A549/WT; for Ratio of IC50 in the presence of dipyridamole / IC50 in the absence of dipyridamole: 4-N-acyl and 4-N-phosphoryl derivatives (Table 5)
Procedure: as §1, §2, §3, §4, §5

[5] = test system: human bladder cancer cell line T-24; assay: MTT assay, cell viability of T-24 cells; settings: 100 μM; for inhibition of cell growth (cell viability, MTT), order of potency: 5000 cells/well
Procedure: as §1
The cell viability of T-24 bladder cancer cells upon treatment with the Gemcitabine derivatives was evaluated using the MTT assay. T24 cancer cells were cultured in DMEM (Gibco) high glucose supplemented with 10% FBS and 1% Penicillin/Streptomycin (100 U/mL Penicillin and 100 μg/mL Streptomycin), at 37 ° C. in humidified atmosphere of 5% CO2.
For the MTT assay 5000 or 10000 cells were seeded in triplicates in 96-well plates. Stock solutions of each derivative were prepared in DMSO/EtOH (1:1 v/v). Then, the cells were treated and incubated with 100 μM of each compound for 24 or 48 hours. After the completion of the incubation time, 10 μL of MTT solution (5 mg/ml in PBS buffer) were added in each well and incubated for 4 hrs. Finally, to stop the reaction, the supernatant from each well was removed and 100 μL of stop mix solution (20% SDS in 50% dimethyl formamide in water) were added. The plate remained in darkness for 2 h and the absorbance was measured at 540 nm via a microplate ELISA reader (Awareness Technology Inc.) with a reference at 630 nm. The % cell viability for each compound was calculated relatively to the absorbance of the untreated cells (control).
Two sets of experiments were performed at concentrations of 100 μM, and the absorption of formazan was measured after 24 and 48 hours.
Another experiment was conducted with the MTT assay where the compounds were incubated for 48 hours at […] derivative concentration where the number of cells seeded per well was 10000.

[6] = acetylated 4-N-acyl derivatives (Table 6)
[7] = 4-N-acyl and 4-N-phosphoryl derivatives (Table 4)

IC50 [1, 6] [nM]	Ratio of IC50 in the presence of, compared to in the absence of, dipyridamole [1]	IC50 [2, 6] [nM]	Ratio of IC50 in the presence of, compared to in the absence of, dipyridamole [2]	Ratio of IC50 in the presence of, compared to in the absence of, dipyridamole [3]	IC50 [3, 6] [nM]	Ratio of IC50 in the presence of, compared to in the absence of, dipyridamole [4]	IC50 [4, 6] [nM]	IC50 [1, 7] [nM]	Ratio of IC50 in the presence of dipyridamole / IC50 in the absence of dipyridamole [1]	Ratio of IC50 in the presence of dipyridamole / IC50 in the absence of dipyridamole [2]	IC50 [2, 7] [nM]	Ratio of IC50 in the presence of dipyridamole / IC50 in the absence of dipyridamole [3]	IC50 [3, 7] [nM]	Ratio of IC50 in the presence of dipyridamole / IC50 in the absence of dipyridamole [4]	IC50 [4, 7] [nM]	SMILES	inhibition of cell growth (cell viability, MTT), order of potency ([5]; 24 hours)	inhibition of cell growth (cell viability, MTT), order of potency ([5]; 48 hours)	cell viability (MTT), most potent derivatives ([5]; 10000 cells/well, 48 hours)
1150	3.5	8000	1.1	8	770	15	1600									CC(=O)OCC1OC(n2ccc(NC(=O)OCC(C)c3ccccc3[N+](=O)[O-])nc2=O)C(F)(F)C1OC(C)=O (stereo not drawn) [Derivative 19]			
610	12.7	6600	3.1	10.8	720	6.5	900									C#CCOC(=O)Nc1ccn(C2OC(COC(C)=O)C(OC(C)=O)C2(F)F)c(=O)n1 (stereo not drawn) [Derivative 18]			
4200	3.8	25000	1	3.4	5000	2.7	6200									CC(=O)OCC1OC(n2ccc(N3CCOC3=O)nc2=O)C(F)(F)C1OC(C)=O (stereo not drawn) [Derivative 16]			
4300	3.7	25000	1	2.8	3200	2.6	8000									CC(=O)OCC1OC(n2ccc(NC(=O)OCC(C)C)nc2=O)C(F)(F)C1OC(C)=O (stereo not drawn) [Derivative 21]			
260	13.4	3700	1.6	4.1	450	4	400									CC(=O)Nc1ccn(C2OC(COC(C)=O)C(OC(C)=O)C2(F)F)c(=O)n1 (stereo not drawn) [Derivative 22]			
570	17.54	3900	4	4.6	600	7.5	620									COc1cc(COC(=O)Nc2ccn(C3OC(COC(C)=O)C(OC(C)=O)C3(F)F)c(=O)n2)c([N+](=O)[O-])cc1OC (stereo not drawn) [Derivative 20]			

The remaining lines, values behind:

SMILES	IC50 [1, 6] [nM]	Ratio of IC50 in the presence of, compared to in the absence of, dipyridamole [1]	IC50 [2, 6] [nM]	Ratio of IC50 in the presence of, compared to in the absence of, dipyridamole [2]	Ratio of IC50 in the presence of, compared to in the absence of, dipyridamole [3]	IC50 [3, 6] [nM]	Ratio of IC50 in the presence of, compared to in the absence of, dipyridamole [4]	IC50 [4, 6] [nM]	IC50 [1, 7] [nM]	Ratio of IC50 in the presence of dipyridamole / IC50 in the absence of dipyridamole [1]	Ratio of IC50 in the presence of dipyridamole / IC50 in the absence of dipyridamole [2]	IC50 [2, 7] [nM]	Ratio of IC50 in the presence of dipyridamole / IC50 in the absence of dipyridamole [3]	IC50 [3, 7] [nM]	Ratio of IC50 in the presence of dipyridamole / IC50 in the absence of dipyridamole [4]	IC50 [4, 7] [nM]	inhibition of cell growth (cell viability, MTT), order of potency ([5]; 24 hours)	inhibition of cell growth (cell viability, MTT), order of potency ([5]; 48 hours)	cell viability (MTT), most potent derivatives ([5]; 10000 cells/well, 48 hours)
CC(=O)OCC1OC(n2ccc(NC(=O)OCCCl)nc2=O)C(F)(F)C1OC(C)=O (stereo not drawn) [Derivative 15]	4000	4.5	10000	2.5	3.3	3000	3.7	3700											
O=C(Nc1ccn(C2OC(CO)C(O)C2(F)F)c(=O)n1)OCc1cn(C2=CC3C=CC(O)=CC3OC2=O)nn1 (stereo not drawn) [Derivative 11, (1-(7-hydroxy-2-oxo-4a,8a-dihydro-2H-chromen-3-yl)-1H-1,2,3-triazol-4-yl) methyl-4-N-Gemcitabine carbamate]									420	11.9	4.6	1600	25	200	11	430	greater potency than the parent drug Gemcitabine	17>4>11 and then Gemcitabine	most potent
CCOC(=O)Nc1ccn(C2OC(COC(C)=O)C(OC(C)=O)C2(F)F)c(=O)n1 (stereo not drawn) [Derivative 13]	6800	3.6	25000	1	2.8	5000	2.85	6300											
C#CCOC(=O)Nc1ccn(C2OC(CO)C(O)C2(F)F)c(=O)n1 (stereo not drawn) [Derivative 5]									380	13	2.7	1850	23	240	11.1	450			
O=C(Nc1ccn(C2OC(CO)C(O)C2(F)F)c(=O)n1)OCCCl (stereo not drawn) [Derivative 3A]									610	40.9	0.6	3000	27	500	10.5	950			
O=C1OCCN1c1ccn(C2OC(CO)C(O)C2(F)F)c(=O)n1 (stereo not drawn) [Derivative 3B]									100	25	23	380	24	100	18.1	160			
CC(C)COC(=O)Nc1ccn(C2OC(CO)C(O)C2(F)F)c(=O)n1 (stereo not drawn) [Derivative 8]									170	14	4.2	480	25	150	10.4	240			
CCCCOC(=O)Nc1ccn(C2OC(CO)C(O)C2(F)F)c(=O)n1 (stereo not drawn) [Derivative 2]									460	8	2.4	2450	3.7	340	3.4	700			
CC(COC(=O)Nc1ccn(C2OC(CO)C(O)C2(F)F)c(=O)n1)c1ccccc1[N+](=O)[O-] (stereo not drawn) [Derivative 6]									430	11	4	1600	13.1	340	11	500			
